A word on the IC50: it is the concentration that gives 50% inhibition.

The values below come from patent publication US12390467B2, “Necroptosis inducers or autophagy inhibitors or a combination thereof” (The University of Toledo, priority 2018, dated 2025).

Type in all cases: cell-based
One assay has as its system BT-20 (TNBC cell line). Nature of the assay: MTT cell viability assay, BT-20. The protocol:
(§1) The following cancer and non-cancer cell lines were used in the initial cytotoxicity screening of the TPH104 compounds: triple negative breast cancer (TNBC): MDA-MB468, MDA-MB 231, and BT-20; non-TNBC: MCF-7 and ZR-75-1; ovarian: Ov2008; prostate: DU145; colon: HCT-116, S1, and LOVO; lung: H460; normal kidney: HEK-293; normal breast: HMEC; and normal colon: CRL-1459. All cells were cultured in Dulbecco's modified Eagle medium (DMEM), supplemented with 10% fetal bovine serum (FBS), and 1% penicillin/streptomycin (P/S). Cells were allowed to grow as adherent monolayers in T25 flasks in a humidified incubator with 5% CO2 at 37° C. for a period of 24 h, unless otherwise specified for certain experiments.
(§2) The MTT assay was used to determine the cytotoxicity of all of the compounds. Briefly, in a 96-well flat-bottom cell culture plate, the cells were seeded at a density between 3-5×10^3 cells/well (180 μl in each well) and incubated for 24 h (a hemocytometer was used for cell counting). The next day, the cells were incubated with different concentrations of the nine compounds (0, 0.1, 0.3, 1, 3, 10, 30, and 100 μM) for 72 h. After 72 h, 20 μl of 5 mg/ml of 3-(4,5-dimethylthiazol-2-yl)-2,5-diphenyltetrazolium bromide (MTT) was added to the plate and incubated with the cells for 3 h at 37° C. In this experiment, the living cells will reduce the soluble MTT dye to non-soluble purple formazan crystals. Following incubation, the media containing MTT removed via suction and 100 μL of 100% dimethyl sulfoxide (DMSO) was added to dissolve the formazan crystals. Subsequently, the plate was shaken for 2 minutes and the absorbance was measured at a wavelength of 570 nm using a SpectraMax iD3 Multi-Mode Microplate Reader (Molecular Devices, Sunnyvale, CA). The IC50 values of each compound were calculated and used to determine the selectivity ratio (IC50 in normal cells/IC50 in cancer cells) of each compound as previously described. Based on the results obtained from these experiments, the compound TPH104, which had the lowest IC50 value, was selected for further experiments.
(In general: Tetrazolium assays rely on reduction of a dye to a coloured formazan, in cell work by metabolically active cells.)

The test system of the next assay is BT-20 cells. Nature of the assay: incuCyte live cell imaging of proliferation. The settings on record: 0.1, 1, 3, and 10 μM. The source says: FIG. 4: Representative images of the anti-proliferative effect of TPH104 at different concentrations and different time points in BT-20 cells. The time lapse images were taken using an incuCyte live cell imaging instrument (10×). **p<0.01, ***p<0.001, ****p<0.0001 compared to the control.

Assay [1] relates to LC3B-I, LC3B-II, LAMP1, Beclin-1, mTOR, ULK1, Rab7, Rab5 in BT-20 TNBC cells. The assay is described as follows: Western blot, autophagy markers. The protocol: The TNBC cells were seeded in a culture flask and incubated for 24 h. The cells were then incubated with different concentrations of the lead compounds and re-incubated for an additional 12 or 24 h. […] The bicinchoninic acid (BCA) was used to determine protein concentration in the cell extracts (G-BIOSCIENCES, St. Louis, MO, USA). […] The membrane was blocked using 5% milk in Tris-buffered Tween 20 saline for 30 minutes. The membrane was then incubated overnight with primary antibodies against Bak, Bax, Bcl-2, caspase9, caspase 3, caspase 7, PARP, cytochrome c, N-cadherin, E-cadherin, c-Myc, dishevelled segment polarity protein 3 (DVL3), dishevelled segment polarity protein 2 (DVL2), Vimentin, mitogen-activated protein kinase kinase (MAPKK also known as MEK1/2), β-catenin, low-density lipoprotein receptor-related protein 6 (LRP6), receptor-interacting protein kinase (RIP), phosphorylated RIP (p-RIP), mixed lineage kinase domain like pseudokinase(MLKL), Caspase 8, light chain 3 (LC3), lysosomal-associated membrane protein 1 (LAMP1), unc-51 like autophagy activating kinase 1 (ULK1), ras associated protein 7 (Rab7), ras associated protein 5 (Rab5), Beclin 1, mechanistic target of rapamycin (mTOR), tumor necrosis factor alpha (TNF-α), tumor necrosis factor receptor 1 (TNFR1), tumor necrosis factor receptor 2 (TNFR2), Fas-associated protein with death domain (FADD), Fas ligand (Fas), TNF-related apoptosis-inducing ligand (TRAIL), death receptor 5 (DR5), Tumor necrosis factor receptor type 1-associated DEATH domain (TRADD), receptor-interacting protein kinase 3 (RIP3), β-actin or GAPDH in 1:1000 dilution in 5% milk or 5% BSA at 4° C. Horseradish peroxidase-labeled (HRP) anti-rabbit or anti-mouse secondary antibodies (1:5,000 dilution) were added and incubated the next day for an additional 1 h. A ChemiDoc™ MP System imaging system from Bio-Rad (Hercules, CA, USA) was used for blots reading. Blots were used to obtain the protein bands, followed by quantification of the bands using image J software (NIH, Bethesda, MD, USA). All of the data were expressed as the ratio of β-actin or GAPDH.
On the technique in general: Immunoblotting shows a protein as a band on a membrane.

The subject of assay [2] is MDA-MB231 (TNBC cell line). Nature of the assay: MTT cell viability assay, MDA-MB231. Particulars: Homo sapiens, MDA-MB-231, 72 h, read-out: IC50 ± SD, MDA-MB231. Here is the method: as §1, §2
Assay [3] concerns S1M180 and H460-MX20 ABCG2-overexpressing cells vs parental S1 and H460. The assay is described as follows: Collateral sensitivity in ABCG2-overexpressing versus parental cells. Particulars: 0.3, 3, and 30 μM. The source says: The data is shown as means±SEM of three independent experiments.
Assay [4] concerns ZR-75-1 (non-TNBC cell line). Nature of the assay: MTT cell viability assay, ZR-75-1. Particulars: read-out: IC50 ± SD, ZR-75-1. The protocol:
as §1, §2

For the next assay, the system named is MDA-MB231 cells. Nature of the assay: Scratch/wound healing assay. The protocol:
MDA-MB231 cells were seeded in a 6 well-plate (10-20,000 cells/well) and incubated at 37° C. until they reached 60-80% confluence and formed a complete monolayer, as previously reported. Subsequently, a wound was created by scratching the monolayer with a 10 μl sterile pipette tip. The floating cells were washed away with sterile PBS, making the wound area clear and completely empty. Immediately following monolayer scratching, TPH104 (0.5, 1, 2, 5 or 10 μM) or vehicle were added to the cell culture media (2 ml total in each well) and incubated at 37° C. for 36 h. The wound closure was monitored over time by taking pictures after 0 h, 12 h, 24 h, and 36 h of incubation using an EVOS-FLC microscope. Image J software NIH, Bethesda, MD, USA) was used to determine the areas of the wound at different time points as previously reported.

Like-named read-outs stand apart in the source and are kept apart here.

As to `COc1ccc(O)c(/C=N/Nc2ncnc3scc(-c4ccc(C)cc4)c23)c1` [TPH104], the “percent cell survival, TPH104 + rapamycin vs TPH104 only” value in the assay with BT-20 (TNBC cell line) (+ 100 nM rapamycin) is “significant increase”. Further, the “percent BT-20 survival, TPH104 + 3-methyladenine” value with BT-20 (TNBC cell line) (+ 0.5 mM) was “no significant change”. Moreover, the IC50 in the assay with BT-20 (TNBC cell line) (Homo sapiens, BT-20, MTT, 72 h, TNBC) turned out to be 290 nM; in assay [2], 190 nM; in assay [4] (72 h), 8.56 ± 1.95 µM; in assay [4] (Homo sapiens, ZR-75-1, 72 h), 8.6 µM. Further, in the assay on BT-20 cells, the BT-20 cell proliferation result was “concentration-dependent and time-dependent decrease”. The “expression levels of ULK1, Rab5, and Rab7” value in assay [1] (0.5, 1, 2, or 5 μM) was “significantly reduced”. Besides, the LC3B-I levels entry in assay [1] (0.5, 1, 2, or 5, 12 h) is recorded as “significantly increased”. Besides, in assay [1] (0.5, 1, 2, or 5, 12 h), the LC3B-II entry is on record as “no significant increase”. In addition, the “expression of Beclin 1” value in assay [1] (1, 2, and 5 μM for 12 h) was “significantly decreased”. In addition, the “expression of mTOR” value in assay [1] (1, 2, or 5 μM for 12 h) is given as “significantly increased”. In assay [1] (12 h), the “expression levels of LAMP1” value is “no significant change”. For the same compound, the “ABCG2 transporter mediated multidrug resistance, collateral sensitivity” value in assay [3] is given as “collateral sensitivity”. In the assay with MDA-MB231 cells (10 μM, after 12 h of incubation), this compound showed a death of cells of 70%. The mobility and migration entry in the assay on MDA-MB231 cells (0.5, 1, 2, 5, and 10 μM) is recorded as “significantly decreased”. The wound closure result in the assay on MDA-MB231 cells (1, 2, 5, and 10 μM) is given as “significantly reduced”.
